Results: patent US12390449B2, “Substituted 2-aminobenzimidazoles analogs as antibiofilm agents” (priority 2018, dated 2025)
“Also recorded” adds a separate entry of the source. Where a name gives a salt, the structure may show the parent alone. Read-outs that look alike come from different tables or passages of the source.

Columns and labels:
[1] = test system: Galleria mellonella larvae; assay: Toxicity assay in Galleria mellonella larvae; format: in vivo; conditions: 400 mg kg^−1
Description: FIGS. 5A-5B show representative toxicity data obtained for a representative disclosed compound. […] Briefly, S. typhimurium (JSG210) was grown in the presence of a representative disclosed compound, compound M4, present at a concentration of 10 μM for 24 hours, followed by determination of viability measured by drip plating at T=0, 2, 5, 15, 20, 24 hours. 3 biological replicates were tested. […] Briefly, a representative disclosed compound, compound M4, was injected into last left proleg of Galleria mellonella larvae at 400 mg/kg and assessed at 24-hour intervals over 5 days. The study was repeated 3 times using 10 larvae per experiment group.
Toxicity was measured by drip plating and counting cfu/mL.

[2] = test system: Salmonella typhimurium ATCC14028 Biofilms; assay: Inhibitory effect of test compounds on Salmonella typhimurium ATCC14028 biofilms (crystal violet, 96-well); format: cell-based
Description: Procedure to Determine the Inhibitory Effect of Test Compounds on Salmonella typhimurium ATCC14028 Biofilms: […] Stock solutions of predetermined concentrations of the test compounds were then made in 1 mL of bacterial culture. […] Sample plates were then incubated for 24 h at 30° C. After incubation, the medium was discarded from the wells and the plates were washed thoroughly with water. Plates were then stained with 110 μL of 0.1% solution of crystal violet (CV) and then incubated at ambient temperature for 30 min. Plates were washed with water again and the remaining stain was solubilized with 200 μL of 95% ethanol. A sample of 125 μL of solubilized CV stain from each well was transferred to the corresponding wells of a polystyrene microtiter dish. Biofilm inhibition was quantitated by measuring the OD540 of each well in which a negative control lane wherein no biofilm was formed served as a background and was subtracted out.

[3] = test system: S. typhimurium ATCC 14028; assay: Growth curves, planktonic bacterial growth; format: cell-based; conditions: at their IC50 values; hydrochloride
Description: Growth Curves: S. typhimurium was grown overnight in TSB, and this culture was used to inoculate fresh 1:20 TSB (OD600=0.08). Inoculated medium was aliquoted (3 mL) into culture tubes, and compound was added, with untreated inoculated medium serving as the control. Tubes were incubated at 30° C. with shaking. Samples were taken at 2, 4, 6, 8, and 24 h time points, serially diluted in fresh 1:20 TSB, and plated on nutrient agar. Plates were incubated at 37° C. overnight in stationary conditions, and the number of colonies was enumerated.

[4] = Salmonella enterica, 24 h, read-out: IC50 (μM), inhibition of biofilm formation, S. typhimurium ATCC14028, 24 h at 30° C., crystal violet OD540
[5] = read-out: IC50 (μM), inhibition of biofilm formation, S. typhimurium ATCC14028, 24 h at 30° C., crystal violet OD540, hydrochloride

SMILES | toxicity to G. mellonella [1] | IC50 [2, 4] | IC50 [2, 5] | toxicity to planktonic bacterial growth [3] | IC50 ([2]; read-out: IC50 (μM), inhibition of biofilm formation, S. typhimurium ATCC14028, 24 h at 30° C., crystal violet OD540, listed as 15d, hydrochloride) | IC50 ([2]; read-out: IC50 (μM), inhibition of biofilm formation, S. typhimurium ATCC14028, 24 h at 30° C., crystal violet OD540)
Cl.Nc1nc2cc(NC(=O)c3cc(Cl)cc(Cl)c3)ccc2n1CCCc1ccccc1 [Compound 10e, N-(2-Amino-1-(3-phenylpropyl)-1H-benzo[d]imidazol-5-yl)-3,5-dichlorobenzamide hydrochloride] | no toxicity | 10 to 15 µM | 13.3 ± 0.49 µM | – | – | –
CCCCCOc1ccc(C(=O)Nc2ccc3c(c2)nc(N)n3CCCc2ccccc2)cc1.Cl [Compound 10a, N-(2-Amino-1-(3-phenylpropyl)-1H-benzo[d]imidazol-5-yl)-4-pentoxybenzamide hydrochloride] | – | 5.22 ± 0.11 µM | – | no toxicity; also recorded: non-toxic | – | –
Cl.Nc1nc2cc(NC(=O)c3ccc(Cl)c(Cl)c3)ccc2n1CCCc1ccccc1 [Compound 10d, N-(2-Amino-1-(3-phenylpropyl)-1H-benzo[d]imidazol-5-yl)-3,4-dichlorobenzamide hydrochloride] | no toxicity | < 7 µM | 6.3 ± 1.29 µM | – | 6.3 ± 1.29 µM | –
CCCCCCn1c(N)nc2ccc(NC(=O)c3ccc(CCCCC)cc3)cc21 [Compound 9b, N-(2-Amino-1-hexyl-1H-benzo[d]imidazol-6-yl)-4-pentylbenzamide hydrochloride] | – | 10 to 15 µM | – | – | – | –
Cl.Nc1nc2cc(NC(=O)Nc3ccc(Cl)c(Cl)c3)ccc2n1CCCc1ccccc1 [Compound 20, 1-(2-Amino-1-(3-phenylpropyl)-1H-benzo[d]imidazol-5-yl)-3-(3,4-dichlorophenyl)urea hydrochloride] | – | 7.69 ± 0.25 µM | – | no toxicity; also recorded: non-toxic | – | –
CCCCCc1ccc(C(=O)Nc2ccc3c(c2)nc(N)n3CC(C)C)cc1 [Compound 5d, N-(2-Amino-1-isbutyl-1H-benzo[d]imidazol-5-yl)-4-pentylbenzamide hydrochloride] | – | – | – | – | – | 10 to 15 µM
